From paper PMC4057759, “Biological Evaluation and 3D-QSAR Studies of Curcumin Analogues as Aldehyde Dehydrogenase 1 Inhibitors” (International Journal of Molecular Sciences, 2014) come the findings set out here.

The target in data set [1] is T1, baker's yeast ALDH1 (Saccharomyces cerevisiae, UniProt P46367).
T1 construct: purchased Sigma (St. Louis, MO, USA)
T1 sequence (P46367 25-519): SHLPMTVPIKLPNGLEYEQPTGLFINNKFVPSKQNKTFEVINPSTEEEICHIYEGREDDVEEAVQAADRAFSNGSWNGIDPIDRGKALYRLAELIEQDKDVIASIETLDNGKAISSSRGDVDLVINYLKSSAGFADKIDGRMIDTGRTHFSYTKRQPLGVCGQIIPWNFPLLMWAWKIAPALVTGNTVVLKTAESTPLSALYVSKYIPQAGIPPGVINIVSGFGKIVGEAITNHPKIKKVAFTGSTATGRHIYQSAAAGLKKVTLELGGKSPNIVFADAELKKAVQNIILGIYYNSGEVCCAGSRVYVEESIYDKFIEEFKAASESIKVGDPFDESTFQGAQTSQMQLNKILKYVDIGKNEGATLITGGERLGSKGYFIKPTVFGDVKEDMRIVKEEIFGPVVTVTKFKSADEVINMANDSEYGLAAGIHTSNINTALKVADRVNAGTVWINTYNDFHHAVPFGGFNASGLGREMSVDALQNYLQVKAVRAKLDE
Put plainly: In vitro ALDH1 inhibitory assay (propanal oxidation, NAD, OD 340 nm). The settings on record: for inhibitory activity on ALDH1 (in words): in vitro. The format is biochemical. How it is done:
(§1) In vitro ALDH1 inhibitory assay was performed as follows. To a reaction mixture containing 1 mM EDTA, 100 mM KCl, 2 mM NAD, 0.1 M sodium phosphate buffer pH 7.4, 1 U/mg baker’s yeast ALDH1 was added by Multifunction microplatereader (Tecan Infinite 200, TECAN Austria GmbH, Männedorf, Switzerland). The reaction was started by the addition of 1 mM propanal in final volume of 300 μL and the optical density (OD) was read at 340 nm at 0 min (just after the addition of the substrate) and reacted for 5 min. The enzyme activity is expressed as OD/min at 25 °C at the pH 7.4. Results are the average of three experiments done in duplicate. […] The IC50 values in units of μM were transformed in pIC50 (–log IC50). The data was randomly divided into training set (26 samples) and test set (4 samples * carry out external validation).

In data set [2] the target is T2, ALDH1 (Saccharomyces cerevisiae, UniProt P46367).
T2 construct: purchased Sigma (St. Louis, MO, USA)
T2 sequence (P46367 25-519): T1 sequence (P46367 25-519)
The data set is described as follows: Kinetic analysis of inhibition of ALDH1 (Lineweaver-Burk plots, propanal). Format: biochemical, baker's yeast. The settings on record: double-reciprocal plots, oxidation of propanal. As to the method: as §1, with “Figure 1. […] In vitro” for “In vitro”

A short description of data set [3]: Solubility (remark). Format: physicochemical.
Where [4] appears, read: 1 mM propanal, 2 mM NAD, pH 7.4, 25 °C, read-out: IC50.
Where [5] appears, read: Table 3, experimental activity, read-out: Actual pIC50 (converted).
[6] abbreviates: Table 1, –log IC50, read-out: pIC50 (converted).

Read-outs that look alike come from different tables or passages of the source.

In the case of `COc1cc(/C=C2\CNC/C(=C\c3cc(OC)c(O)c(OC)c3)C2=O)cc(OC)c1O` [Compound 3], the figures for the IC50 in data set [1] (setting [4]) and in data set [1] (setting [5]) were 30 µM and 30.2 µM, respectively.
Taken in the same sequence, the figures for `CN(C)c1ccc(/C=C2\CCC/C(=C\c3ccc(N(C)C)cc3)C2=O)cc1` [Compound 22] were 73.5 µM and 74.1 µM.
Take `O=C1/C(=C/c2ccc(O)c(O)c2)CSC/C1=C\c1ccc(O)c(O)c1` [Compound 9]: the IC50 is 22.7 µM in data set [1] (setting [4]) and 22.9 µM in data set [1] (setting [5]).
In the case of `CCN(CC)C(=S)SSC(=S)N(CC)CC` [Disufiram, disulfiram, reference compound], in data set [1] (setting [4]), the IC50 was found to be 2.91 µM.
For the compound `O=C1/C(=C/c2ccc(O)c(O)c2)CCC/C1=C\c1ccc(O)c(O)c1` [Compound 7], the IC50 in data set [1] (Actual pIC50, Table 3, experimental activity) was 6.31 µM; in data set [1] (IC50, 1 mM propanal, 2 mM NAD, pH 7.4, 25 °C), 6.5 µM; in data set [1] (pIC50, Table 1, –log IC50), 6.31 µM. For the same compound, in data set [1], the “inhibitory activity on ALDH1 (in words)” value is on record as “high inhibitory activity”.
For the compound `O=C1/C(=C/c2ccc(O)cc2)COC/C1=C\c1ccc(O)cc1` [Compound 11], the IC50 in data set [1] (setting [4]) was 39.7 µM; in data set [1] (setting [6]) it was 38.9 µM; in data set [1] (setting [5]), 38.9 µM.
Turning to `O=C1/C(=C/c2cc(O)cc(O)c2)CC/C1=C\c1cc(O)cc(O)c1` [Compound 12], the IC50 in data set [1] (setting [4]) was 43.2 µM; in data set [1] (setting [5]), 43.7 µM.
For the compound `O=C1/C(=C/c2ccc(O)c(O)c2)COC/C1=C\c1ccc(O)c(O)c1` [Compound 8], the results for the IC50 in data set [1] (setting [4]) and in data set [1] (setting [5]) were 7.9 µM and 7.94 µM, respectively. In addition, the “inhibitory activity on ALDH1 (in words)” value in data set [1] was “high inhibitory activity”.
Consider `COc1cc(/C=C2\CSC/C(=C\c3cc(OC)c(OC)c(OC)c3)C2=O)cc(OC)c1OC` [Compound 21], for which the IC50 in data set [1] (setting [4]) and in data set [1] (setting [5]) was 63.1 µM each time.
In the case of `O=C(/C=C/c1cc(Br)c(O)c(Br)c1)/C=C/c1cc(Br)c(O)c(Br)c1` [Compound 17], the IC50 in data set [1] (setting [4]) was 25.8 µM; in data set [1] (setting [5]), 25.7 µM.
As for `O=C1/C(=C/c2cc(Br)c(O)c(Br)c2)CSC/C1=C\c1cc(Br)c(O)c(Br)c1` [Compound 20], the IC50 is 17.7 µM in data set [1] (setting [4]) and 17.8 µM in data set [1] (setting [5]).
In the case of `O=C1/C(=C/c2ccc(Br)cc2)CCC/C1=C\c1ccc(Br)cc1` [Compound 24], the IC50 in data set [1] (setting [4]) was 8.2 µM; in data set [1] (setting [6]) it was 8.32 µM; in data set [1] (setting [5]) it was 8.32 µM. For the same compound, the “inhibitory activity on ALDH1 (in words)” value in data set [1] is listed as “high inhibitory activity”. The inhibition type entry in data set [2] was “mixed-competitive inhibition type”. In addition, in data set [3], the solubility entry is “not good”.
As for `O=C1/C(=C/c2ccc(O)c(O)c2)CNC/C1=C\c1ccc(O)c(O)c1` [Compound 4], the IC50 in data set [1] (setting [4]) was 39.4 µM; in data set [1] (setting [5]), 39.8 µM.
As to `COc1cc(/C=C/C(=O)CC(=O)/C=C/c2ccc(O)c(OC)c2)ccc1O` [Curcumin], the IC50 in data set [1] (setting [4]) was found to be 36.9 µM.
For the compound `COc1cc(/C=C2\CSC/C(=C\c3ccc(O)c(OC)c3)C2=O)ccc1O` [Compound 14], the IC50 is 31.3 µM in data set [1] (setting [4]) and 31.6 µM in data set [1] (setting [5]).
Regarding `O=C1/C(=C/c2ccncc2)CSC/C1=C\c1ccncc1` [Compound 26], the results for the IC50 in data set [1] (setting [4]) and in data set [1] (setting [5]) were 10.6 µM and 10.7 µM, respectively.
For the compound `COc1cc(/C=C2\CC/C(=C\c3ccc(O)c(OC)c3)C2=O)ccc1O` [Compound 13], the IC50 is 24.2 µM in data set [1] (setting [4]) and 24 µM in data set [1] (setting [5]).
In the case of `O=C1/C(=C/c2cccs2)CC/C1=C\c1cccs1` [Compound 25], the values for the IC50 in data set [1] (setting [4]), in data set [1] (setting [6]) and in data set [1] (setting [5]) were 30.1 µM, 29.5 µM and 29.5 µM, respectively.
In the case of `O=C1/C(=C/c2cc(Br)c(O)c(Br)c2)COC/C1=C\c1cc(Br)c(O)c(Br)c1` [Compound 19], the IC50 was 18.7 µM in data set [1] (setting [4]) and 18.6 µM in data set [1] (setting [5]).
Regarding `O=C1/C(=C/c2ccc(O)c(O)c2)CC/C1=C\c1ccc(O)c(O)c1` [Compound 6], the IC50 was 3.41 µM in data set [1] (setting [4]) and 3.47 µM in data set [1] (setting [6]). In addition, in data set [1], the “inhibitory activity on ALDH1 (in words)” value is on record as “high inhibitory activity”. Besides, the “activity relative to curcumin” value in data set [1] (ratio of IC50 values) was “over 10 times”. Further, in data set [2], the inhibition type result was “mixed-competitive inhibition type”.
With `O=C1/C(=C/c2cc(Br)c(O)c(Br)c2)CCC/C1=C\c1cc(Br)c(O)c(Br)c1` [Compound 18], the IC50 was 17.5 µM in data set [1] (setting [4]) and 17.4 µM in data set [1] (setting [5]).
Consider `CN(C)c1ccc(/C=C2\CSC/C(=C\c3ccc(N(C)C)cc3)C2=O)cc1` [Compound 23], for which the IC50 in data set [1] (setting [4]) is 69.4 µM; in data set [1] (setting [5]), 69.2 µM.
Taken in the same sequence, the figures for `COc1cc(/C=C2\COC/C(=C\c3cc(F)c(O)c(OC)c3)C2=O)cc(F)c1O` [Compound 16] were 53.2 µM and 53.7 µM.
With `O=C1/C(=C/c2ccc(O)cc2)CC/C1=C\c1ccc(O)cc1` [Compound 10], the results for the IC50 in data set [1] (setting [4]) and in data set [1] (setting [5]) were 54.2 µM and 63.1 µM, respectively.
Consider `O=C1/C(=C/c2ccccn2)CCC/C1=C\c1ccccn1` [Compound 30], for which the results for the IC50 in data set [1] (setting [4]) and in data set [1] (setting [5]) were 18.4 µM and 18.2 µM, respectively.
Consider `O=C(/C=C/c1ccc(O)c(O)c1)/C=C/c1ccc(O)c(O)c1` [Compound 5], for which the values for the IC50 in data set [1] (setting [4]) and in data set [1] (setting [5]) were 23.6 µM and 23.4 µM, respectively.
With `COc1cc(/C=C2\COC/C(=C\c3cc(OC)c(O)c(OC)c3)C2=O)cc(OC)c1O` [Compound 15], the IC50 in data set [1] (setting [4]) and in data set [1] (setting [5]) was 16.6 µM throughout.
For the compound `O=C1/C(=C/c2ccccn2)CC/C1=C\c1ccccn1` [Compound 29], the IC50 in data set [1] (setting [6]) and in data set [1] (setting [5]) was 13.8 µM throughout.
